Measurements taken from ChEMBL document CHEMBL1128726, “N-substituted oxazolo[5,4-b]pyridin-2(1H)-ones: a new class of non-opiate antinociceptive agents” (J Med Chem, 1995).
Active and inactive are the calls of the source.

What was measured:
Mus musculus [1] = assay: Inhibition of phenylquinone induced writhing in mice following 50 mg/kg p.o.; type: functional; conditions: route oral
Rattus norvegicus [2] = species on record: Rattus norvegicus; assay: Analgesic activity against acetic acid-induced writhing in the rat compared to that of aspirin.; type: functional
Rattus norvegicus [3] = species on record: Rattus norvegicus; assay: Antinociceptive potency against acetic acid -induced writhing in rat (8 rats/dose); type: functional
Rattus norvegicus [4] = assay: Inhibition of acetic acid induced writhing in rat following 50 mg/kg p.o.; type: functional; conditions: route oral
Mus musculus [5] = species on record: Mus musculus; assay: Analgesic activity against phenylquinone induced writhing in mice compared to that of aspirin.; type: functional
Mus musculus [6] = species on record: Mus musculus; assay: Antinociceptive potency against phenylquinone (PBQ)-induced writhing in mice (8 mice/dose); type: functional
Mus musculus [7] = assay: Analgesic activity was evaluated in mice by hot plate assay and percent change in foot licking latency was determined at 32 mg/kg i.p. dose. p<0.05; type: functional; conditions: route intraperitoneal
Mus musculus [8] = assay: Mortality threshold doses was determined from orientative acute toxicity Irwin test (3 mice/dose) by peroral administration. Value in parentheses represent the percent mortality.; type: organism-based; conditions: in vivo, po
Rattus norvegicus [9] = assay: Antiinflammatory activity was evaluated by carrageenan induced rat paw edema (6 rats/ dose) at peroral dose of 50 mg/kg and percent of variation of edema volume was determined.; type: functional; conditions: route oral
Rattus norvegicus [10] = assay: % inhibition of acetic acid-induced writhing in rat at 1.5 mg/kg peroral dose, 120 min postdose(5 rats per compound at each time).p<0.05; type: functional; conditions: 2 h, route oral
Rattus norvegicus [11] = assay: % inhibition of acetic acid-induced writhing in rat at 1.5 mg/kg peroral dose, 15 min postdose(5 rats per compound at each time). p<0.05; type: functional; conditions: 0.25 h, route oral
Rattus norvegicus [12] = assay: % inhibition of acetic acid-induced writhing in rat at 1.5 mg/kg peroral dose, 180 min postdose(5 rats per compound at each time).p<0.05; type: functional; conditions: 3 h, route oral
Rattus norvegicus [13] = assay: % inhibition of acetic acid-induced writhing in rat at 1.5 mg/kg peroral dose, 30 min postdose(5 rats per compound at each time).p<0.001; type: functional; conditions: 0.5 h, route oral
Rattus norvegicus [14] = assay: % inhibition of acetic acid-induced writhing in rat at 1.5 mg/kg peroral dose, 360 min postdose(5 rats per compound at each time); type: functional; conditions: 6 h, route oral
Rattus norvegicus [15] = assay: Antiinflammatory activity was evaluated by carrageenan induced rat paw edema (6 rats/ dose) at peroral dose of 50 mg/kg by inhibition of Prostaglandin E2 (PGE2).; type: functional; conditions: route oral
Rattus norvegicus [16] = assay: Antiinflammatory activity was evaluated by carrageenan induced rat paw edema (6 rats/ dose) at peroral dose of 50 mg/kg by inhibition of leukotriene B4 (LTB4) synthesis.; type: functional; conditions: route oral
Rattus norvegicus [17] = assay: % inhibition of acetic acid-induced writhing in rat at 1.5 mg/kg peroral dose, 60 min postdose(5 rats per compound at each time).p<0.01; type: functional; conditions: 1 h, route oral
Mus musculus [18] = assay: Analgesic activity was evaluated in mice by hot plate assay and percent change in foot licking latency was determined at 8 mg/kg i.p. dose; type: functional; conditions: route intraperitoneal
Mus musculus [19] = assay: Mortality threshold doses was determined from orientative acute toxicity Irwin test (3 mice/dose) by peroral administration; type: organism-based; conditions: in vivo, po
Rattus norvegicus [20] = assay: Antiinflammatory activity was evaluated by carrageenan induced rat paw edema volume was determined.; type: functional
Rattus norvegicus [21] = assay: Antiinflammatory activity was evaluated by carrageenan induced rat paw edema (6 rats/ dose) at peroral dose of 100 mg/kg by inhibition of Prostaglandin E2 (PGE2).; type: functional; conditions: route oral
Rattus norvegicus [22] = assay: Antiinflammatory activity was evaluated by carrageenan induced rat paw edema (6 rats/ dose) at peroral dose of 100 mg/kg by inhibition of leukotriene B4 (LTB4) synthesis.; type: functional; conditions: route oral
Rattus norvegicus [23] = assay: Antiinflammatory activity was evaluated by carrageenan induced rat paw edema (6 rats/ dose) at peroral dose of 10 mg/kg by inhibition of leukotriene B4 (LTB4) synthesis.; type: functional; conditions: route oral
Rattus norvegicus [24] = species on record: Rattus norvegicus; assay: animal or person; conditions: po, read-out: Inhibition
Description: Antiinflammatory activity was evaluated by carrageenan induced rat paw edema (6 rats/ dose) at peroral dose of 10 mg/kg by inhibition of Prostaglandin E2 (PGE2).

Rattus norvegicus [25] = assay: Antiinflammatory activity was evaluated by carrageenan induced rat paw edema (6 rats/ dose) at peroral dose of 200 mg/kg and percent of variation of edema volume was determined.; type: functional; conditions: route oral
Rattus norvegicus [26] = assay: Antiinflammatory activity was evaluated by carrageenan induced rat paw edema (6 rats/ dose) at peroral dose of 200 mg/kg by inhibition of leukotriene B4 (LTB4) synthesis.; type: functional; conditions: route oral
Rattus norvegicus [27] = assay: Antiinflammatory activity was evaluated by carrageenan induced rat paw edema (6 rats/ dose) at peroral dose of 200 mg/kg by inhibition of Prostaglandin E2 (PGE2).; type: functional; conditions: route oral
Rattus norvegicus [28] = assay: % inhibition of acetic acid-induced writhing in rat at 30 mg/kg peroral dose, 360 min postdose(5 rats per compound at each time); type: functional; conditions: 6 h, route oral
Rattus norvegicus [29] = assay: % inhibition of acetic acid-induced writhing in rat at 30 mg/kg peroral dose, 60 min postdose(5 rats per compound at each time); type: functional; conditions: 1 h, route oral
Rattus norvegicus [30] = assay: % inhibition of acetic acid-induced writhing in rat at 30 mg/kg peroral dose, 15 min postdose(5 rats per compound at each time); type: functional; conditions: 0.25 h, route oral
Rattus norvegicus [31] = assay: % inhibition of acetic acid-induced writhing in rat at 30 mg/kg peroral dose, 180 min postdose(5 rats per compound at each time); type: functional; conditions: 3 h, route oral
Rattus norvegicus [32] = assay: % inhibition of acetic acid-induced writhing in rat at 30 mg/kg peroral dose, 30 min postdose(5 rats per compound at each time); type: functional; conditions: 0.5 h, route oral
Rattus norvegicus [33] = assay: % inhibition of acetic acid-induced writhing in rat at 30 mg/kg peroral dose, 120 min postdose(5 rats per compound at each time); type: functional; conditions: 2 h, route oral
Mus musculus [34] = assay: Analgesic activity was evaluated in mice by hot plate assay and percent change in foot licking latency was determined at 16 mg/kg i.p. dose; type: functional; conditions: route intraperitoneal
Mus musculus [35] = assay: Analgesic activity was evaluated in mice (10 mice/dose)by tail clip assay and expressed as number of protected animals upon total. Total tested was determined at 5 mg/kg p.o. dose; 5/10; type: functional, organism-based; design: dose 5 mg/kg

SMILES | inhibition in vivo at 50 mg/kg (Mus musculus [1]) | Activity ratio (Rattus norvegicus [2]) | ED50 (Rattus norvegicus [3]) | inhibition in vivo at 50 mg/kg (Rattus norvegicus [4]) | Activity ratio (Mus musculus [5]) | ED50 (Mus musculus [6]) | also measured
O=c1oc2ncccc2n1CCN1CCN(c2ccc(F)cc2)CC1 | 83% | 1.2 | 3.6 mg/kg | 85% | 1.2 | 6.7 mg/kg | –
O=c1oc2ncccc2n1CCCCCN1CCN(c2ccc(F)cc2)CC1 | 100% | 1.6 | 30.4 mg/kg | 100% | 1.4 | 11.4 mg/kg | –
O=c1oc2ncccc2n1CCN1CCN(c2ccccc2)CC1 | – | – | 13.6 mg/kg | 74% | – | 25 mg/kg | –
O=c1oc2ncccc2n1CCCN1CCN(c2ccc(F)cc2)CC1 | 85% | 2 | 0.5 mg/kg | 79% | 1.6 | 5.6 mg/kg | Change in foot-licking latency (Mus musculus [7]): 87%; Mortality threshold (Mus musculus [8]): 1024 mg/kg; Change in volume (Rattus norvegicus [9]): -11%; inhibition in vivo at 1.5 mg/kg (Rattus norvegicus [10]): 63%; inhibition in vivo at 1.5 mg/kg (Rattus norvegicus [11]): 47%; inhibition in vivo at 1.5 mg/kg (Rattus norvegicus [12]): 44%; inhibition in vivo at 1.5 mg/kg (Rattus norvegicus [13]): 65%; inhibition in vivo at 1.5 mg/kg (Rattus norvegicus [14]): 4%; inhibition in vivo at 50 mg/kg (Rattus norvegicus [15]): -5%; inhibition in vivo at 50 mg/kg (Rattus norvegicus [16]): 16%; inhibition in vivo at 1.5 mg/kg (Rattus norvegicus [17]): 50%
O=c1oc2ncccc2n1CCCCN1CCN(c2ccc(F)cc2)CC1 | 100% | 2.2 | 0.5 mg/kg | 87% | 1.9 | 2.9 mg/kg | Change in foot-licking latency (Mus musculus [18]): 113%; Mortality threshold (Mus musculus [19]): 512 mg/kg; Variation of edema volume (Rattus norvegicus [20]): -25%; inhibition in vivo at 50 mg/kg (Rattus norvegicus [15]): 2%; inhibition in vivo at 50 mg/kg (Rattus norvegicus [16]): 0%
O=c1oc2ncccc2n1CCCN1CCN(c2ccccc2)CC1 | 98% | 1.3 | 3.3 mg/kg | 92% | 1.4 | 12.7 mg/kg | Change in foot-licking latency (Mus musculus [7]): 30%; Mortality threshold (Mus musculus [19]): > 1024 mg/kg; Change in volume (Rattus norvegicus [20]): -20%; inhibition in vivo at 100 mg/kg (Rattus norvegicus [21]): 5%; inhibition in vivo at 100 mg/kg (Rattus norvegicus [22]): 35%
O=c1oc2ncccc2n1CCN1CCC(c2ccccc2)CC1 | 9% | 0.7 | – | 50% | 0.1 | – | –
COc1ccc2c(c1)c(CC(=O)O)c(C)n2C(=O)c1ccc(Cl)cc1 [INDOMETHACIN] | – | – | – | – | – | – | Change in volume (Rattus norvegicus [20]): -57%; inhibition in vivo at 10 mg/kg (Rattus norvegicus [23]): 18%; inhibition in vivo at 10 mg/kg (Rattus norvegicus [24]): 100%
O=c1oc2ncccc2n1CCCN1CCN(c2cccc3ccccc23)CC1 | 44% | 0 | – | 0% | 0.9 | – | –
O=c1oc2ncccc2n1CCN1CCN(c2cccc(C(F)(F)F)c2)CC1 | 10% | 0.2 | – | 11% | 0.1 | – | –
O=c1oc2ncccc2n1CCCN1CCN(Cc2ccccc2)CC1 | 14% | 0.2 | – | 12% | 0.3 | – | –
O=c1oc2ncccc2n1CCCCCCN1CCN(c2ccc(F)cc2)CC1 | 100% | 1.6 | 14.2 mg/kg | 100% | 1.4 | 7.7 mg/kg | –
O=C1CCN(c2ccccc2)N1 [PHENIDONE] | – | – | – | – | – | – | Change in volume (Rattus norvegicus [25]): -68%; inhibition in vivo at 200 mg/kg (Rattus norvegicus [26]): 100%; inhibition in vivo at 200 mg/kg (Rattus norvegicus [27]): 100%
O=c1oc2ncccc2n1CCCN1CCOCC1 | 48% | 0 | – | 0% | 0.9 | – | –
CC(CCn1c(=O)oc2ncccc21)N1CCN(c2ccc(F)cc2)CC1 (stereo not given) | 63% | 0.7 | – | 51% | 1.3 | – | –
O=c1oc2ncccc2n1CCCCN1CCC(c2ccccc2)CC1 | 0% | 1.5 | – | 59% | 0 | – | –
CC(CN1CCN(c2ccc(F)cc2)CC1)Cn1c(=O)oc2ncccc21 (stereo not given) | 99% | 1.6 | 20.5 mg/kg | 100% | 1.4 | 24.6 mg/kg | –
O=c1oc2ncccc2n1CCN1CCCC1 | 55% | 0.8 | – | 55% | 0.8 | – | –
COc1ccccc1N1CCN(CCn2c(=O)oc3ncccc32)CC1 | 52% | 0.8 | – | 53% | 0.8 | – | –
O=c1oc2ncccc2n1CCCCN1CCN(c2ccccc2)CC1 | 91% | 1.4 | 13.6 mg/kg | 96% | 1.3 | 27 mg/kg | –
O=c1oc2ncccc2n1CCN1CCN(c2cccc3ccccc23)CC1 | 33% | 0.1 | – | 6% | 0.7 | – | –
O=C(CCn1c(=O)oc2ncccc21)N1CCN(c2ccc(F)cc2)CC1 | 25% | 0.5 | – | 43% | 0.4 | – | –
CC(=O)Oc1ccccc1C(=O)O [ASPIRIN] | – | – | 32 mg/kg | – | – | 63 mg/kg | inhibition in vivo at 30 mg/kg (Rattus norvegicus [28]): 0%; inhibition in vivo at 30 mg/kg (Rattus norvegicus [29]): 60%; inhibition in vivo at 30 mg/kg (Rattus norvegicus [30]): 53%; inhibition in vivo at 30 mg/kg (Rattus norvegicus [31]): 18%; inhibition in vivo at 30 mg/kg (Rattus norvegicus [32]): 37%; inhibition in vivo at 30 mg/kg (Rattus norvegicus [33]): 26%
O=c1oc2ncccc2n1CCN1CCN(Cc2ccccc2)CC1 | 43% | 0.7 | – | 48% | 0.9 | – | –
COc1ccc(N2CCN(CCCn3c(=O)oc4ncccc43)CC2)cc1 | 35% | 0.2 | – | 14% | 0.7 | – | –
CN1CC[C@]23c4c5ccc(O)c4O[C@H]2[C@@H](O)C=C[C@H]3[C@H]1C5.CN1CC[C@]23c4c5ccc(O)c4O[C@H]2[C@@H](O)C=C[C@H]3[C@H]1C5.O=S(=O)(O)O | – | – | – | – | – | – | Change in foot-licking latency (Mus musculus [34]): 283%; No. of protected animals/total (Mus musculus [35]): Partially active
